System: 931267-113-T-J1-PDC KRAS spheroid with HUVEC/MSC, viability
Assay: Anticancer human tumor 931267-113-T-J1-PDC patient-derived colon adenocarcinoma cell line growth inhibition [KRAS2]
Conditions: for IC50: curve of first compound; for viability, T/C: stronger effect = lower value
Source text: Multicellular complex tumor spheroid response to RAS pathway inhibitors in combination with a targeted agents in patient-derived cell lines with oncogenic KRAS variants from multiple cancer types
A high-throughput screen of multi-cell type tumor spheroids was designed to identify active combinations of targeted small molecules and KRAS pathway inhibitors. Complex spheroids include a stromal component modeled by human endothelial cells (HUVEC) and fibroblasts modeled by human mesenchymal stem cells (MSCs). The concentration ranges selected for each drug and investigational agent were based upon clinically achievable concentrations if the clinical Cmax of the agent was known.
Compounds. The drugs and investigational agents: BI-3406 (NSC825286), BAY-293 (NSC824723), batoprotafib (TNO155; NSC825523), sotorasib (AMG 510; NSC818433), MRTX1257 (NSC819558), elimusertib (BAY 1895344; NSC800525), molibresib (GSK525762; NSC774829), temuterkib (LY3214996; NSC803410), venetoclax (NSC766270), alisertib (NSC759677), olaparib (NSC753686), talazoparib (NSC767125), erdafitinib (NSC781556), ipatasertib (NSC767898), cabozantinib (NSC761068), nintedanib (NSC756659), abemaciclib (NSC768073), docetaxel (NSC628503), trametinib (NSC758246), and sapanisertib (NSC764658) were obtained from the National Cancer Institute (NCI) Developmental Therapeutics Program Chemical Repository. The FDA-approved anticancer drug set is available from the Developmental Therapeutics Program. […] The stock solutions were prepared in dimethyl sulfoxide (DMSO, Sigma-Aldrich, St. Louis, MO, cat. D2650) at 800-fold the tested concentration and stored at -70 degrees C prior to their use. All drugs and investigational agents were tested over a range starting from a high concentration at or near the clinical Cmax and decreasing in half-log increments. If the clinical Cmax for an agent had not been determined, the highest concentration tested was 10 microM.
Cell Culture. All cells were maintained in an incubator at 37 degrees C and 5% CO2 with 95% humidity. The PDC lines were cultured according to standard operating procedures established by the NCI PDMR (https://pdmr.cancer.gov/sops/default.htm). Briefly, all PDCs were thawed and cultured in Matrigel-coated flasks prepared with a working solution of 1X Ham's F-12 nutrient mix, without supplementation (Invitrogen, Waltham, MA, cat. 11765054), 100 U/mL penicillin-streptomycin (Invitrogen, cat. 15140122), and 2.5% Matrigel (Corning Inc., Corning, NY, cat. 354248) for the first three passages. All PDCs were cultured in complete DMEM/F-12 media containing advanced DMEM/F-12 (Invitrogen, cat. 12634028), 4.9% defined fetal bovine serum, heat inactivated (HyClone Laboratories Inc., Logan, UT, cat. SH30070.03HI), 389 ng/mL hydrocortisone (Sigma-Aldrich, cat. H4001), 9.7 ng/mL human EGF recombinant protein (Invitrogen, cat. PHG0313), 23.4 microg/mL adenine (Sigma-Aldrich, cat. A2786), 97.3 U/mL penicillin-streptomycin (Invitrogen, cat. 15140122), 1.9 mM L-glutamine (Invitrogen, cat. 25030081), and 9.7 microM Y-27632 dihydrochloride (Tocris Bioscience, Bristol, United Kingdom, cat. 1254). The PDCs were cultured in complete DMEM/F12 media without 9.7 microM Y-27632 dihydrochloride for at least two passages prior to the screen. The established cell line HOP-62 was cultured in RPMI 1640 medium, HEPES (Invitrogen, cat. 22400105) with 10% defined fetal bovine serum (HyClone Laboratories Inc., cat. SH30070.03) and 2 mM L-glutamine (Invitrogen, cat. 25030081). The pooled donor HUVEC were cultured in endothelial cell growth medium 2 (PromoCell, Heidelberg, Germany, cat. C-22011) and the hMSC were cultured in mesenchymal stem cell growth medium 2 (PromoCell, cat. C-28009). For all experiments, HUVEC and hMSC were used at passages </=5, while the malignant cell lines were used at passages </=15. […]

[1] = second compound 0.1 µM, first compound 0.0316 µM
[2] = second compound 0.1 µM, first compound 0.1 µM
[3] = second compound 0.1 µM, first compound 0.316 µM
[4] = second compound 0.1 µM, first compound 1 µM
[5] = second compound 0.1 µM, first compound 3.16 µM
[6] = second compound 0.1 µM, first compound 10 µM
[7] = second compound 0.316 µM, first compound 0.0316 µM
[8] = second compound 0.316 µM, first compound 0.1 µM
[9] = second compound 0.316 µM, first compound 0.316 µM
[10] = second compound 0.316 µM, first compound 1 µM
[11] = second compound 0.316 µM, first compound 3.16 µM
[12] = second compound 0.316 µM, first compound 10 µM
[13] = second compound 1 µM, first compound 0.0316 µM
[14] = second compound 1 µM, first compound 0.1 µM
[15] = second compound 1 µM, first compound 0.316 µM
[16] = second compound 1 µM, first compound 1 µM
[17] = second compound 1 µM, first compound 3.16 µM
[18] = second compound 1 µM, first compound 10 µM
[19] = second compound 3.16 µM, first compound 0.0316 µM
[20] = second compound 3.16 µM, first compound 0.1 µM
[21] = second compound 3.16 µM, first compound 0.316 µM
[22] = second compound 3.16 µM, first compound 1 µM
[23] = second compound 3.16 µM, first compound 3.16 µM
[24] = second compound 3.16 µM, first compound 10 µM
[25] = second compound 10 µM, first compound 0.0316 µM
[26] = second compound 10 µM, first compound 0.1 µM
[27] = second compound 10 µM, first compound 0.316 µM
[28] = second compound 10 µM, first compound 1 µM
[29] = second compound 10 µM, first compound 3.16 µM
[30] = second compound 10 µM, first compound 10 µM
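Also: compound exposure lasted 7 days before the readout.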
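For viability, T/C in this document: 100% = DMSO vehicle control viability.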

SMILES | IC50 (second compound 0.1 µM) [nM] | IC50 (second compound 0.316 µM) [nM] | IC50 (second compound 1 µM) [nM] | IC50 (second compound 3.16 µM) [nM] | IC50 (second compound 10 µM) [nM] | viability, T/C [1] [%] | viability, T/C [2] [%] | viability, T/C [3] [%] | viability, T/C [4] [%] | viability, T/C [5] [%] | viability, T/C [6] [%] | viability, T/C [7] [%] | viability, T/C [8] [%] | viability, T/C [9] [%] | viability, T/C [10] [%] | viability, T/C [11] [%] | viability, T/C [12] [%] | viability, T/C [13] [%] | viability, T/C [14] [%] | viability, T/C [15] [%] | also measured
COC(=O)c1ccc2c(C(=Nc3ccc(N(C)C(=O)CN4CCN(C)CC4)cc3)c3ccccc3)c(O)[nH]c2c1 + C=CC(=O)N1CCN(c2nc(=O)n(-c3c(C)ccnc3C(C)C)c3nc(-c4c(O)cccc4F)c(F)cc23)C(C)C1 | 1340 | 1080 | 1050 | 922 | 984 | 107 | 100 | 90.5 | 67 | 0.52 | 0.48 | 120 | 103 | 84.8 | 63.4 | 0.81 | 0.29 | 129 | 116 | 82.8 | viability, T/C [16]: 65.8%; viability, T/C [17]: 0.56%; viability, T/C [18]: 0.21%; viability, T/C [19]: 121%; viability, T/C [20]: 134%; viability, T/C [21]: 82.8%; viability, T/C [22]: 56.4%; viability, T/C [23]: 0.33%; viability, T/C [24]: 0.22%; viability, T/C [25]: 119%; viability, T/C [26]: 103%; viability, T/C [27]: 103%; viability, T/C [28]: 50%; viability, T/C [29]: 0.49%; viability, T/C [30]: 0.31%
O=C(c1cc(Cc2n[nH]c(=O)c3ccccc23)ccc1F)N1CCN(C(=O)C2CC2)CC1 + C=CC(=O)N1CCN(c2nc(=O)n(-c3c(C)ccnc3C(C)C)c3nc(-c4c(O)cccc4F)c(F)cc23)C(C)C1 | > 10000 | > 10000 | > 10000 | > 10000 | > 10000 | 94.3 | 87 | 82.3 | 97.7 | 101 | 85.1 | 110 | 108 | 81.9 | 83.6 | 93.9 | 97.3 | 88 | 103 | 113 | viability, T/C [16]: 100%; viability, T/C [17]: 88.2%; viability, T/C [18]: 92.2%; viability, T/C [19]: 105%; viability, T/C [20]: 115%; viability, T/C [21]: 110%; viability, T/C [22]: 89.9%; viability, T/C [23]: 107%; viability, T/C [24]: 112%; viability, T/C [25]: 89.2%; viability, T/C [26]: 102%; viability, T/C [27]: 113%; viability, T/C [28]: 111%; viability, T/C [29]: 102%; viability, T/C [30]: 99.6%
